Laboratory results: patent US12559474B2, “Triazine derivatives having virus replication inhibitory activity and pharmaceutical composition comprising the same” (priority 2021, dated 2026)
Where two headings read alike, the source gives them in different places.

Assays:
SARS-CoV-2 = assay: microbe, parasite or virus in culture; assay type: cell-based; conditions: Severe acute respiratory syndrome coronavirus 2, VeroE6/TMPRSS2, 72 h, 50% SARS-CoV-2 infected cell death inhibitory concentration, VeroE6/TMPRSS2 cells, 3 days culture
SARS-CoV-2 3CL protease = SARS-CoV-2 3CL protease (Severe acute respiratory syndrome coronavirus 2, UniProt P0DTD1); assay: biochemical; conditions: 50% SARS-CoV-2 3CL protease inhibitory concentration, read-out: IC50

| SMILES | EC50 (SARS-CoV-2; class symbols) | IC50 (SARS-CoV-2 3CL protease; given as class symbols) | EC50 (SARS-CoV-2; CellTiter-Glo 2.0) | IC50 (SARS-CoV-2 3CL protease; RapidFire MS) |
| --- | --- | --- | --- | --- |
| Cc1cncc(-n2c(=O)nc(Nc3cc4cn(C)nc4cc3Cl)n(Cc3cc(F)c(F)c(F)c3)c2=O)c1F [II-0270] | 1000 to 10000 nM | < 100 nM |  |  |
| Cc1cncc(-n2c(=O)nc(Nc3cc4cn(C)nc4cc3Cl)n(Cc3cc(F)c(F)cc3Br)c2=O)c1 [II-0404] | < 1000 nM | < 100 nM |  |  |
| Cc1cncc(-n2c(=O)nc(Nc3cc4cn(C)nc4cc3F)n(Cc3cc(C#N)ccc3C)c2=O)c1 [II-0115] | < 1000 nM | < 100 nM |  |  |
| Cc1cncc(-n2c(=O)nc(Nc3cc4cn(CC(F)F)nc4cc3Cl)n(Cc3cc(C#N)c(F)cn3)c2=O)c1 [II-0533] | 1000 to 10000 nM | < 100 nM |  |  |
| O=c1[nH]cccc1Cn1c(=O)nc(Nc2cc3cn(CC4(O)CCC4)nc3cc2Cl)n(Cc2cc(F)c(F)c(F)c2)c1=O [Compound I-0423] | 1000 to 10000 nM | < 100 nM |  |  |
| Cc1cncc(-n2c(=O)nc(Nc3cc4cn(C)nc4cc3Cl)n(Cc3cc(Cl)ccc3F)c2=O)c1 [II-0362] | < 1000 nM | < 100 nM |  |  |
| Cc1cncc(-n2c(=O)nc(Nc3cc4cn(C(C)C)nc4cc3Cl)n(Cc3ccc(F)c(C#N)c3)c2=O)c1 [II-0544] | < 1000 nM | < 100 nM |  |  |
| Cc1cncc(-n2c(=O)nc(Nc3cc4cn(C)nc4cc3Cl)n(Cc3cc(F)c(F)c(C#N)c3)c2=O)c1 [II-0130] |  |  | 95 nM | 1.9 nM |
| COc1ccc(Nc2nc(=O)n(Cc3ccc[nH]c3=O)c(=O)n2Cc2cc(F)cc(Cl)c2)cc1 [Compound I-0316] | 1000 to 10000 nM | < 100 nM |  |  |
| C#Cc1cc(Cn2c(Nc3cc4cn(C)nc4cc3Cl)nc(=O)n(-c3cncc(C)c3)c2=O)ccc1F [II-0590] | < 1000 nM | < 100 nM |  |  |
| Cc1cncc(-n2c(=O)nc(Nc3ccc4nn(CC(F)F)cc4c3)n(Cc3cc(F)c(F)c(C#N)c3)c2=O)c1 [II-0055] |  |  | 180 nM | 4.5 nM |
| O=c1nc(Nc2cc3cn(CCO)nc3cc2Cl)n(Cc2cc(F)c(F)cc2F)c(=O)n1-c1cncc2ccccc12 [II-0032] | < 1000 nM | < 100 nM |  |  |
| Cn1cnc(Cn2c(=O)nc(Nc3cc4c(C(F)(F)F)n(C)nc4cc3Cl)n(Cc3cc(F)c(F)cc3F)c2=O)n1 [II-0468] | 1000 to 10000 nM | < 100 nM |  |  |
| N#Cc1cc(Cn2c(Nc3cc4cn(CC(F)F)nc4cc3F)nc(=O)n(-c3cncc(Cl)c3)c2=O)ccc1F [II-0513] | < 1000 nM | < 100 nM |  |  |
| CC(=O)Nc1nc2cc(Cl)c(Nc3nc(=O)n(Cc4ccc[nH]c4=O)c(=O)n3Cc3cc(F)c(F)c(F)c3)cc2s1 [Compound I-0465] | 1000 to 10000 nM | < 100 nM | 3270 nM | 4.2 nM |
| Cc1cc(Cn2cc3cc(Nc4nc(=O)n(Cc5ccc[nH]c5=O)c(=O)n4Cc4cc(F)c(F)c(F)c4)c(Cl)cc3n2)no1 [II-0348] | 1000 to 10000 nM | < 100 nM |  |  |
| Cn1cc2cc(Nc3nc(=O)n(-c4cncc5ccccc45)c(=O)n3Cc3ccc(F)c(C#N)c3)c(F)cc2n1 [Compound I-0429] | < 1000 nM | < 100 nM |  |  |
| CNc1nc2ccc(Nc3nc(=O)n(-c4cncc(Cl)c4)c(=O)n3Cc3cc(C#N)ccc3Cl)cc2s1 [II-0398] | < 1000 nM | < 100 nM |  |  |
| CC(=O)Nc1nc2cc(Cl)c(Nc3nc(=O)n(-c4cncc(C)c4)c(=O)n3Cc3cc(F)c(F)cc3F)cc2s1 [II-0563] | 1000 to 10000 nM | < 100 nM |  |  |
| Cn1cnc(Cn2c(=O)nc(Nc3cc4cn(Cc5ccccn5)nc4cc3Cl)n(Cc3cc(Cl)c(F)cc3F)c2=O)n1 [II-0005] | 1000 to 10000 nM | < 100 nM |  |  |
| O=c1nc(Nc2cc3c(cc2Cl)OCC3)n(Cc2cc(F)c(F)c(F)c2)c(=O)n1-c1cncc2ccccc12 [II-0049] | < 1000 nM | < 100 nM |  |  |
| Cc1cncc(-n2c(=O)nc(Nc3cc4cn(C)nc4cc3Cl)n(Cc3cc(F)c(F)cc3Cc3ccccc3)c2=O)c1 [II-0094] | 1000 to 10000 nM | < 100 nM |  |  |

| SMILES | EC50 (SARS-CoV-2; class symbols) | IC50 (SARS-CoV-2 3CL protease; given as class symbols) | EC50 (SARS-CoV-2; CellTiter-Glo 2.0) | IC50 (SARS-CoV-2 3CL protease; RapidFire MS) |
| --- | --- | --- | --- | --- |
| N#Cc1cc(Cn2c(Nc3ccc4c(c3)CCO4)nc(=O)n(-c3cncc(C(F)F)c3)c2=O)ccc1F [Compound I-0349] | 1000 to 10000 nM | < 100 nM |  |  |
| CCc1cncc(-n2c(=O)nc(Nc3ccc4nn(C)cc4c3)n(Cc3ccc(F)c(C#N)c3)c2=O)c1 [II-0390] | 1000 to 10000 nM | < 100 nM |  |  |
| COc1ccc(Nc2nc(=O)n(Cc3cc4ccsc4[nH]c3=O)c(=O)n2Cc2cc(F)c(F)c(F)c2)cc1 [Compound I-0081] | < 1000 nM | < 100 nM |  |  |
| Cc1cncc(-n2c(=O)nc(Nc3cc4cn(C)nc4cc3Cl)n(Cc3ccc(F)c(Cl)c3)c2=O)c1 [II-0442] | < 1000 nM | < 100 nM |  |  |
| COc1ccc(Nc2nc(=O)n(Cc3ccc[nH]c3=O)c(=O)n2Cc2cc(F)c(F)c(F)c2F)cc1 [Compound I-0256] | 1000 to 10000 nM | < 100 nM |  |  |
| O=c1[nH]cccc1Cn1c(=O)nc(Nc2ccc(OCC(F)F)cc2Cl)n(Cc2cc(F)c(F)c(F)c2)c1=O [Compound I-0095] | 1000 to 10000 nM | < 100 nM |  |  |
| CC[C@@H](Nc1nc(=O)n(Cc2ccc[nH]c2=O)c(=O)n1Cc1cc(F)c(F)c(F)c1)C(F)(F)F [II-0370] |  |  | 28900 nM | 520 nM |
| Cc1cncc(-n2c(=O)nc(Nc3ccc4nn(C)nc4c3)n(Cc3cc(F)c(F)c(F)c3)c2=O)c1 [II-0221] | 1000 to 10000 nM | < 100 nM |  |  |
| CNc1nc2cc(Cl)c(Nc3nc(=O)n(-c4cncc(C)c4)c(=O)n3Cc3cc(C#N)c(F)cn3)cc2s1 [II-0534] | 1000 to 10000 nM | < 100 nM |  |  |
| Cc1ccc(C#N)cc1Cn1c(Nc2cc3cn(C)nc3cc2F)nc(=O)n(-c2cncc(Cl)c2)c1=O [II-0097] | < 1000 nM | < 100 nM |  |  |
| Cn1cnc(Cn2c(=O)nc(Nc3cc4cn(C)nc4cc3Cl)n(Cc3cc(F)c(F)c(C#N)c3)c2=O)n1 [II-0184] | 1000 to 10000 nM | < 100 nM |  |  |
| CNc1nc2cc(Cl)c(Nc3nc(=O)n(-c4cncc(C)c4)c(=O)n3Cc3ccc(F)c(C#N)c3)cc2o1 [II-0512] | 1000 to 10000 nM | < 100 nM |  |  |
| Cn1cnc(Cn2c(=O)nc(Nc3cc4cn(C)nc4cc3F)n(Cc3cc(Cl)c(F)cc3F)c2=O)n1 [II-0515] | 1000 to 10000 nM | < 100 nM |  |  |
| O=c1[nH]cccc1Cn1c(=O)nc(Nc2ccc3c(c2)CCO3)n(Cc2cc(F)c(F)c(F)c2)c1=O [Compound I-0025] | 1000 to 10000 nM | < 100 nM |  |  |
| Cn1cnc(Cn2c(=O)nc(Nc3cc4oc(N)nc4cc3Cl)n(Cc3cc(F)c(F)cc3F)c2=O)n1 [II-0057] | 1000 to 10000 nM | < 100 nM |  |  |
| Cc1cncc(-n2c(=O)nc(Nc3ccc4nc(C)n(C)c4c3)n(Cc3ccc(F)c(C#N)c3)c2=O)c1 [II-0354] | 1000 to 10000 nM | < 100 nM |  |  |
| Cc1cncc(-n2c(=O)nc(Nc3cc4cn(C)nc4cc3Cl)n(Cc3cc(C#N)ccc3Cl)c2=O)c1 [II-0579] |  |  | 67 nM | 2.1 nM |
| O=c1[nH]cccc1Cn1c(=O)nc(N2CC3(CCC3)C2)n(Cc2cc(F)c(F)c(F)c2)c1=O [II-0226] |  |  | 2770 nM | 130 nM |
| COc1ccc(Nc2nc(=O)n(-c3cnc4sccn34)c(=O)n2Cc2cc(F)c(F)c(F)c2)cc1 [II-0393] |  |  | 6080 nM | 3100 nM |
| Cc1cncc(-n2c(=O)nc(Nc3cc4cn(CC(F)F)nc4cc3Cl)n(Cc3cc(F)c(F)c(C#N)c3)c2=O)c1 [II-0568] |  |  | 132 nM | 2.1 nM |
| O=c1[nH]cccc1Cn1c(=O)nc(Nc2ccc3c(c2)CCCO3)n(Cc2cc(F)c(F)c(F)c2)c1=O [Compound I-0019] | 1000 to 10000 nM | < 100 nM |  |  |
